Laboratory results published in article PMC12192727, “Strategies to Develop Na,K-ATPase-α4 Inhibitors as Male Contraceptives” (International Journal of Molecular Sciences, 2025).
In brackets after ≈: the same amount, converted by molar mass.

What was measured:
physchem = type: physicochemical; settings: PBS pH 7.4; read-out: Solubility
Method: The stock solutions of 11 and 45 were prepared in DMSO at a concentration of 30 mM, and the stock solution of the control compound was prepared in DMSO at a concentration of 30 mM. Progesterone was used as a positive control in the assay. An amount of 10 µL of stock solution of each compound was placed in order into their proper 96-well rack, followed by adding 990 µL of PBS at pH 7.4 into each vial of the capless Solubility Sample plate. This study was performed in duplicate. One stir stick was added to each vial and then sealed using a molded PTDE/SIL 96-Well Plate Cover (Pharmaron, Waltman, MA, USA). The Solubility Sample plate was transferred to the Thermomixer Comfort plate shaker and incubated at RT for 2 h with shaking at 1100 rpm. After 2 h of incubation, stir sticks were removed using a big magnet, and all samples from the Solubility Sample plate were transferred into the filter plate. All the samples were filtered using a vacuum manifold. The filtered samples were diluted with methanol. The soluble fraction (filtrate) was then analyzed by LC-MS/MS, and the compound concentration was determined using 0.3 μM standard solutions prepared from DMSO stocks. The experimental details are reported in the Supporting Information (Table S1). […]
Table S1 . Solubility Results of Test C ompound and Control C ompound in […]
Compound ID Solubility (µM)
Preparation of Stock Solutions: The stock solutions of test compounds were prepared in DMSO at the concentration of 30 mM, and the stock solution of control compound was prepared in DMSO at the concentration of 30 mM.
Progesterone was used as positive control in the assay.
Solubility Determination: 10 µL stock solution of each compound was placed in order into their proper 96-well rack, followed by adding 990 µL of PBS at pH 7.4 into each vial of the cap-less Solubility Sample plate. This study was performed in duplicate. One stir stick was added to each vial and then vials were sealed using a molded PTDE/SIL 96-Well Plate Cover. The Solubility Sample plate was transferred to the Thermomixer Comfort plate shaker and incubated at RT for 2 hours with shaking at 1100 rpm. After 2 hours incubation, stir sticks were removed using a big magnet and all samples from the Solubility Sample plate were transferred into the filter plate. All the samples were filtered by using the Vacuum Manifold. The filtered samples were diluted with methanol. The dilution factor might be changed according to the solubility value and the LC/MS signal response. To prepare 0.3 µM Standards (STD), 30 mM DMSO compound stock solutions were diluted with DMSO to 300 µM and then diluted with methanol to obtain 0.3 µM STDs. Samples were analyzed by LC-MS/MS. All calculations were carried out using Microsoft Excel. The solution filtered was analyzed and quantified against a standard of known concentration in DMSO using LC coupled with Mass spectral peak identification and quantitation. The solubility values of the test compounds were calculated as follow DF means the dilution factor
1. Chromatographic conditions
Apparatus: Triple QuadTM 5500 instrument from AB Inc (Canada) with an ESI interface Column: XSelect Hss T3 2.5µ (2.1×50 mm) Column XP coupled with preguard column Mobile phase: 0.1% formic acid in acetonitrile (A) and 0.1% formic acid in water (B) […]

[1] = Solubility as noted when testing was attempted; type: physicochemical

| Compound | Solubility (physchem) [µM] | Solubility (in words, precluded testing) [1] |
| --- | --- | --- |
| CC(=O)[C@H]1CC[C@H]2[C@@H]3CCC4=CC(=O)CC[C@]4(C)[C@H]3CC[C@]12C [Progesterone, reference compound] | 18.0 (≈ 5.66 µg/mL) |  |
| C[C@]12CC[C@H]3[C@@H](CC=C4C[C@@H](O)CC[C@@]43C)[C@@H]1CC[C@@H]2n1cc(-c2ccccc2)nn1 [Compound 30, (3S,8R,9S,10R,13S,14S,17S)-10,13-Dimethyl-17-(4-phenyl-1H-1,2,3-triazol-1-yl)-2,3,4,7,8,9,10,11,12,13,14,15,16,17-tetradecahydro-1H-cyclopenta[a]phenanthren-3-ol] |  | inadequate solubility |
| CC12CCC(=O)C=C1CCCC2c1cn(Cc2ccccc2)nn1 (stereo not drawn) [Compound 39, 5-(1-Benzyl-1H-1,2,3-triazol-4-yl)-4a-methyl-4,4a,5,6,7,8-hexahydronaphthalen-2(3H)-one] |  | poor solubility |
